Assays:
Details in all cases: incubation time: 72 h
BT-474 [1] = assay: normalised response (% of control), CellTox Green; higher = less cell death (100 = DMSO, 0 = benzethonium chloride kill control)
Method in brief: (§1)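 Two readouts were taken after 72 h: CellTox Green fluorescence (485/520 nm) first, then CellTiter-Glo luminescence after 10 min at room temperature. Breast cancer cell lines had been seeded as 20 µl suspension into 384-well plates holding compound at 5 concentrations in 10-fold steps across a compound-specific 10,000-fold range. Each value is a normalised signal at a single concentration, with plates scaled to 0.1 % DMSO (100) and a positive kill control (0).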

BT-549 [2] = assay: as above
Method in brief: as §1

CAL-120 [3] = assay: as above
Method in brief: as §1

CAL-148 [4] = assay: as above
Method in brief: as §1

CAL-51 [5] = assay: as above
Method in brief: as §1

CAL-85-1 [6] = assay: as above
Method in brief: as §1

DU-4475 [7] = assay: as above
Method in brief: as §1

HCC1143 [8] = assay: as above
Method in brief: as §1

HCC1599 [9] = assay: as above
Method in brief: as §1

HCC1937 [10] = assay: as above
Method in brief: as §1

HDQ-P1 [11] = assay: as above
Method in brief: as §1

Hs578T [12] = assay: as above
Method in brief: as §1

MDA-MB-231 [13] = assay: as above
Method in brief: as §1

MDA-MB-436 [14] = assay: as above
Method in brief: as §1

MDA-MB-453 [15] = assay: as above
Method in brief: as §1

MDA-MB-468 [16] = assay: as above
Method in brief: as §1

MFM-223 [17] = assay: as above
Method in brief: as §1

BT-474 [18] = assay: normalised response (% of control), CellTiter-Glo; higher = more viable cells (100 = DMSO, 0 = benzethonium chloride kill control)
Description: (§2)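 DSRT, 72 h incubation, CellTox Green / CellTiter-Glo readout. Signal is normalised to DMSO and benzethonium chloride controls. Value is the normalised response at dose 3.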

BT-549 [19] = assay: as above
Description: as §2

CAL-120 [20] = assay: as above
Description: as §2

CAL-148 [21] = assay: as above
Description: as §2

CAL-51 [22] = assay: as above
Description: as §2

CAL-85-1 [23] = assay: as above
Description: as §2

DU-4475 [24] = assay: as above
Description: as §2

HCC1143 [25] = assay: as above
Description: as §2

HCC1599 [26] = assay: as above
Description: as §2

HCC1937 [27] = assay: as above
Description: as §2

HDQ-P1 [28] = assay: as above
Description: as §2

Hs578T [29] = assay: as above
Description: as §2

MCF-10A [30] = assay: as above
Description: as §2

MDA-MB-231 [31] = assay: as above
Description: as §2

MDA-MB-436 [32] = assay: as above
Description: as §2

MDA-MB-453 [33] = assay: as above
Description: as §2

MDA-MB-468 [34] = assay: as above
Description: as §2

MFM-223 [35] = assay: as above
Description: as §2

SK-BR-3 = assay: as above
Description: as §2

MCF-10A [36] = assay: normalised response (% of control), CellTox Green; higher = less cell death (100 = DMSO, 0 = benzethonium chloride kill control)
Method in brief: as §1

Row | SMILES | normalised response (BT-474 [1]) [%] | normalised response (BT-549 [2]) [%] | normalised response (CAL-120 [3]) [%] | normalised response (CAL-148 [4]) [%] | normalised response (CAL-51 [5]) [%] | normalised response (CAL-85-1 [6]) [%] | normalised response (DU-4475 [7]) [%] | normalised response (HCC1143 [8]) [%] | normalised response (HCC1599 [9]) [%] | normalised response (HCC1937 [10]) [%] | normalised response (HDQ-P1 [11]) [%] | normalised response (Hs578T [12]) [%] | normalised response (MDA-MB-231 [13]) [%] | normalised response (MDA-MB-436 [14]) [%] | normalised response (MDA-MB-453 [15]) [%] | normalised response (MDA-MB-468 [16]) [%] | normalised response (MFM-223 [17]) [%] | normalised response (BT-474 [18]) [%] | normalised response (BT-549 [19]) [%] | normalised response (CAL-120 [20]) [%] | normalised response (CAL-148 [21]) [%] | normalised response (CAL-51 [22]) [%] | normalised response (CAL-85-1 [23]) [%] | normalised response (DU-4475 [24]) [%] | normalised response (HCC1143 [25]) [%] | normalised response (HCC1599 [26]) [%] | normalised response (HCC1937 [27]) [%] | normalised response (HDQ-P1 [28]) [%] | normalised response (Hs578T [29]) [%] | normalised response (MCF-10A [30]) [%] | normalised response (MDA-MB-231 [31]) [%] | normalised response (MDA-MB-436 [32]) [%] | normalised response (MDA-MB-453 [33]) [%] | normalised response (MDA-MB-468 [34]) [%] | normalised response (MFM-223 [35]) [%] | normalised response (SK-BR-3) [%] | normalised response (MCF-10A [36]) [%]
1 | CC(C)c1c(C(=O)Nc2ccccc2)c(-c2ccccc2)c(-c2ccc(F)cc2)n1CC[C@@H](O)C[C@@H](O)CC(=O)O [Atorvastatin] (100 nM) | 103 | 98.1 | 98.4 | 80.9 | 109 | 94.1 | 103 | 109 | 88.1 | 81.6 | 86.4 | 93.4 | 105 | 109 | 99.2 | 120 | 98 | 94.8 | 94 | 103 | 108 | 103 | 103 | 98.6 | 103 | 105 | 102 | 98 | 102 | 98.4 | 97.5 | 91.5 | 111 | 93.8 | 98.9 | 98.9 | –
2 | COc1ccccc1S(=O)(=O)Nc1ccc2c(c1)CN(C)C(=O)N2 [PFI-1] (100 nM) | 105 | 118 | 106 | – | 102 | 115 | 110 | 82.6 | 111 | 51.5 | 78.4 | 96.8 | 123 | 79.4 | 115 | 125 | 106 | 97.4 | 99.4 | 106 | 105 | 79 | 96.6 | 100 | 100 | 87.7 | 91.4 | 94.5 | 99.6 | 111 | 99.5 | 104 | 105 | 96.8 | 104 | 105 | 92.9
3 | Cc1ccc(NC(=O)c2ccc(CN3CCN(C)CC3)cc2)cc1Nc1nccc(-c2cccnc2)n1 [Imatinib] (100 nM) | 99.8 | 104 | 96.8 | – | 106 | 102 | 102 | 63.2 | 108 | 112 | 111 | 62.7 | 119 | 110 | 102 | 110 | 101 | 99 | 109 | 106 | 111 | 107 | 97.9 | 103 | 104 | 97 | 98 | 98.6 | 106 | 104 | 96.8 | 103 | 111 | 106 | 107 | 105 | 70.4

From the supplement of paper PMC4862054
